Laboratory results published in PubChem BioAssay (NCI).
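Grown in 96-well plates, cells were treated for 48 hours with each compound at five concentrations. Insufficient inhibition: endpoint recorded as highest concentration tested. TGI: total growth inhibition.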

Assays:
Assay in all cases: inhibition of tumour cell growth, NCI panel, 48 h
[1] = system: OVCAR-8 ovarian
[2] = system: SR leukemia
[3] = system: SN12C renal
[4] = system: LOX IMVI melanoma
[5] = system: M14 melanoma
[6] = system: MOLT-4 leukemia
[7] = system: OVCAR-3 ovarian
[8] = system: OVCAR-5 ovarian
[9] = system: UO-31 renal
[10] = system: 786-0 renal
[11] = system: RPMI-8226 leukemia
[12] = system: IGROV1 ovarian
[13] = system: HCT-116 colon
[14] = system: ACHN renal
[15] = system: OVCAR-4 ovarian
[16] = system: A549 NSCLC
[17] = system: KM12 colon
[18] = system: HOP-18 NSCLC
[19] = system: NCI-H460 lung
[20] = system: SK-MEL-28 melanoma
[21] = system: DLD-1 colon
[22] = system: K-562 leukemia
[23] = system: COLO 205 colon
[24] = system: XF 498 CNS
[25] = system: LXFL 529 NSCLC
[26] = system: CCRF-CEM leukemia
[27] = system: SF-539 CNS
[28] = system: MALME-3M melanoma
[29] = system: SF-268 CNS
[30] = system: NCI-H522 lung
[31] = system: RXF-631 renal
[32] = system: HOP-62 NSCLC
[33] = system: HOP-92 NSCLC
[34] = system: SK-MEL-2 melanoma
[35] = system: UACC-257 melanoma
[36] = system: NCI-H226 lung
[37] = system: DMS 114 small cell lung
[38] = system: A498 renal
[39] = system: SF-295 CNS
[40] = system: SNB-75 CNS
[41] = system: SK-MEL-5 melanoma
[42] = system: SW-620 colon
[43] = system: HT29 colon
[44] = system: HCC-2998 colon
[45] = system: EKVX NSCLC
[46] = system: TK-10 renal
[47] = system: DMS 273 small cell lung
[48] = system: SNB-78 CNS
[49] = system: CAKI-1 renal
[50] = system: U251 CNS
[51] = system: SNB-19 CNS
[52] = system: UACC-62 melanoma
[53] = system: M19-MEL melanoma
[54] = system: NCI-H23 lung
[55] = system: SK-OV-3 ovarian
[56] = system: HCT-15 colon
[57] = system: KM20L2 colon

## Cc1cc(C)nc(Sc2c([N+](=O)[O-])ncn2C)n1
[1]
  TGI: > 100 µM
[2]
  TGI: > 100 µM
[3]
  TGI: > 100 µM
[4]
  TGI: > 100 µM
[5]
  TGI: > 100 µM
[6]
  TGI: > 100 µM
[7]
  TGI: > 100 µM
[8]
  TGI: > 100 µM
[9]
  TGI: > 100 µM
[10]
  TGI: > 100 µM
[11]
  TGI: > 100 µM
[12]
  TGI: > 100 µM
[13]
  TGI: > 100 µM
[14]
  TGI: > 100 µM
[15]
  TGI: > 100 µM
[16]
  TGI: > 100 µM
[17]
  TGI: > 100 µM
[18]
  TGI: 85.4 µM
[19]
  TGI: > 100 µM
[20]
  TGI: > 100 µM
[21]
  TGI: > 100 µM
[22]
  TGI: > 100 µM
[23]
  TGI: > 100 µM
[24]
  TGI: > 100 µM
[25]
  TGI: > 100 µM
[26]
  TGI: > 100 µM
[27]
  TGI: > 100 µM
[28]
  TGI: > 100 µM
[29]
  TGI: > 100 µM
[30]
  TGI: > 100 µM
[31]
  TGI: > 100 µM
[32]
  TGI: > 100 µM
[33]
  TGI: > 100 µM
[34]
  TGI: > 100 µM
[35]
  TGI: > 100 µM
[36]
  TGI: > 100 µM
[37]
  TGI: > 100 µM
[38]
  TGI: > 100 µM
[39]
  TGI: > 100 µM
[40]
  TGI: > 100 µM
[41]
  TGI: > 100 µM
[42]
  TGI: > 100 µM
[43]
  TGI: > 100 µM
[44]
  TGI: > 100 µM
[45]
  TGI: > 100 µM
[46]
  TGI: > 100 µM
[47]
  TGI: > 100 µM
[48]
  TGI: > 100 µM
[49]
  TGI: > 100 µM
[50]
  TGI: > 100 µM
[51]
  TGI: > 100 µM
[52]
  TGI: > 100 µM
[53]
  TGI: > 100 µM
[54]
  TGI: > 100 µM
[55]
  TGI: > 100 µM

## COc1ccc(C2C(C#N)=C(O)NC(O)=C2C#N)cc1OC
[1]
  TGI: > 100 µM
[2]
  TGI: > 100 µM
[3]
  TGI: > 100 µM
[5]
  TGI: > 100 µM
[6]
  TGI: > 100 µM
[7]
  TGI: > 100 µM
[8]
  TGI: > 100 µM
[9]
  TGI: > 100 µM
[56]
  TGI: > 100 µM
[11]
  TGI: > 100 µM
[12]
  TGI: > 100 µM
[13]
  TGI: > 100 µM
[16]
  TGI: > 100 µM
[17]
  TGI: > 100 µM
[18]
  TGI: > 100 µM
[20]
  TGI: > 100 µM
[23]
  TGI: > 100 µM
[57]
  TGI: > 100 µM
[24]
  TGI: > 100 µM
[25]
  TGI: > 100 µM
[27]
  TGI: > 100 µM
[28]
  TGI: > 100 µM
[29]
  TGI: > 100 µM
[30]
  TGI: > 100 µM
[31]
  TGI: > 100 µM
[32]
  TGI: > 100 µM
[33]
  TGI: > 100 µM
[34]
  TGI: > 100 µM
[38]
  TGI: > 100 µM
[39]
  TGI: > 100 µM
[40]
  TGI: > 100 µM
[41]
  TGI: > 100 µM
[42]
  TGI: > 100 µM
[43]
  TGI: > 100 µM
[44]
  TGI: > 100 µM
[45]
  TGI: > 100 µM
[47]
  TGI: > 100 µM
[48]
  TGI: > 100 µM
[49]
  TGI: > 100 µM
[50]
  TGI: > 100 µM
[51]
  TGI: > 100 µM
[53]
  TGI: > 100 µM
[55]
  TGI: > 100 µM
